For one data set, the system named is PC-3 cells. The data set is described as follows: In vitro killing of PC-3 cells (MTS, 72 h). It is filed as cell-based. The settings on record: PC-3, 72 h. An excerpt:
4. Experiment on In Vitro Killing of PC-3 Cell
PC-3 cells i.e. prostate cancer cells, which are bought from American ATCC, is a kind of adherent cells.
Its medium, culture conditions and experimental procedures are all the same with that of the above method 1.

In the next data set the test system is Colon38 cells. The data set can be described thus: In vitro killing of Colon38 cells (MTS, 72 h). The settings on record: Colon38, 72 h. It is filed as cell-based, murine. On the procedure: 1. Experimental Sources of In Vitro Killing Colon38 Cells
Colon38 cells i.e. murine colon carcinoma cells, which was gifted from Dept. of Pharmacology, Yale Medical School and are a kind of adherent cells.
(§1) 90% 1640 culture solution plus 10% newborn calf serum (NCS), 100 ml in total, and then add lml miscible liquids containing 1% penicillin and 1% streptomycin.
Cultivate it in an incubator of 37° C. with 5% CO2. The cells will passage every 3 days, and carry out the experiment when the cells enter their logarithmic growth period after two or three times of passage.
2. Experiment on In Vitro Killing of SGC-7901 Cell Source: […]

The test system of another data set is SGC-7901 cells. The data set is described as follows: In vitro killing of SGC-7901 cells (MTS, 72 h). Format: cell-based, human. The settings on record: SGC-7901, 72 h. On the procedure:
SGC-7901 cells i.e. human gastric cancer cells which are bought from Cell Bank of Chinese Academy of Sciences/Shanghai Institute of Life Sciences Cell Resource Center of Chinese Academy of Sciences are adherent cells.
as §1
Cultivate it in an incubator of 37° C. with CO2 of 5 percent. The cells will passage once every 3 days, and carry out the experiment when the cells enter their logarithmic growth period after two or three times of passage.
3. Experiment on In Vitro Killing of MCF-7 Cell Source

A further data set concerns MCF-7 cells. The data set can be described thus: In vitro killing of MCF-7 cells (MTS, 72 h). It is filed as cell-based, human. The settings on record: MCF-7, 72 h. The procedure: MCF-7 cells i.e. human breast cancer cells, which are bought from American ATCC, is a kind of adherent cells.
90% 1640 medium+10% fetal calf serum+30mmol/L Hepes+6 μg/ml insulin.
Its culture conditions and experimental procedures are all the same with that of the above method 1.

Data set [1] relates to colon cancer cell strain colon38 transplanted tumor. The data set can be described thus: Anti-tumor effect on colon38 transplanted tumor in mice. Format: in vivo. The settings on record: for Death number: dead animals of 10 per group, represents side effects; for Death number / Average weight of tumor / Tumor inhibiting rate: dose as in Table VI; for Average weight of tumor: mice, once a week, four times; for Average weight of tumor / Tumor inhibiting rate: after four weeks; for Tumor inhibiting rate: vs CK group. An excerpt:
Based on the method described in Pharmacology Research Methodology of Chinese Medicine (Chinese TCM Publishing House), test the anti-tumor effects of Chalcone A, G007, AG007-16 etc prepared in Embodiment 1, chemotherapy drugs (5-fluorouracil) and HBD09 on animal model of human cancer heterogeneity transplanted tumor. 5-fluorouracil (short for fu) is a broad-spectrum anti-tumor drug and mainly used to cure digestive tract tumor; the common adverse reactions are sicchasia, anorexia or vomiting, abdominal discomfort or diarrhea.
The dose given is as shown in Table VI; intragastric administration/ or injection administration is given once a week and four times in total.

The test system of data set [2] is postprandial blood glucose of Type 2 diabetics. The data set is described as follows: Clinical observation: postprandial blood glucose control in high-blood-glucose patients. Format: in vivo, human. An excerpt: The postprandial blood glucose of Type 2 diabetics not sensitive to insulin is an important index of abnormal glucose metabolism and can be used to test the effect of drugs in reducing blood glucose.

In another data set the test system is Colon 38. The data set can be described thus: Drug combination on inhibiting tumor cells, Combination Index (Chou-Talalay), Colon 38. The settings on record: partner drugs as named in the sentence (G007, I3C, DIM, Cis-platinum). It is filed as cell-based, murine. An excerpt: According to the cells and experiment methods used in Embodiment 2, differences are incurred from that dose concentration is confirmed by the following methods: when two drugs are combined, the concentration of one drug is chosen to be approximate to but smaller than IC50 while the concentration of other drugs is chosen to be in gradient dilution, to perform a series of experiments. When it is experimented that 50% tumor cells are inhibited, then the concentration of all drugs used at that moment is recorded as their IC50 value, and the CI value of the two drugs can be calculated with the formula in the above document.

SMILES strings stand for the structures. In brackets after ≈: the same amount, converted by molar mass. Several values for one entry are separate records, joined by “and”; a condition that tells them apart may be missing. Identical values can stand only once.

Experimental findings from patent US9943560B2, “Medical compositions containing liquorice extracts with synergistic effect” (priority 2010, dated 2018) are described below.

What is called IC50 is the point on the concentration scale where inhibition reaches its midpoint. The term IC80 denotes the point of the concentration-response curve where the effect stands at 80%. A high value points to a need for much substance.

Regarding `c1ccc2c(Cc3c[nH]c4ccccc34)c[nH]c2c1` [HBD09, bis-indolymethane], in the data set on PC-3 cells, the IC50 stood at 13.8 µg/mL (≈ 56 µM) and the IC80 amounted to 23.9 µg/mL (≈ 97 µM). In the data set on Colon38 cells, this molecule gave an IC50 of 18.59 µg/mL (≈ 75.5 µM) and an IC80 of 48.51 µg/mL (≈ 197 µM). Moreover, in the data set with SGC-7901 cells, the IC50 worked out at 18.2 µg/mL (≈ 73.9 µM) and the concentration for an effect of 80% (IC80) was determined as 51.24 µg/mL (≈ 208 µM). Moreover, in the data set on MCF-7 cells, the IC50 is 15.6 µg/mL (≈ 63.3 µM) and the IC80 worked out at 31.2 µg/mL (≈ 127 µM). In data set [1], the Death number turned out to be 2, the “Average weight of tumor” value is on record as 2.6 ± 0.15 g and the Tumor inhibiting rate is recorded as 15%.
Consider `C=CC(C)(C)c1cc(/C=C/C(=O)c2ccc(O)cc2)c(OC)cc1O` [Chalcone A], for which, in the data set on PC-3 cells, the half-maximal inhibitory concentration (IC50) was found to be 7.8 µg/mL (≈ 23 µM) and the 80% effect concentration (IC80) came out at 13.3 µg/mL (≈ 39.3 µM). In the data set on Colon38 cells, this molecule displayed an IC50 of 9.1 µg/mL (≈ 26.9 µM) and an 80% effect concentration (IC80) of 24.77 µg/mL (≈ 73.2 µM). For the same molecule, in the data set with SGC-7901 cells, the 50% inhibitory concentration (IC50) worked out at 9.7 µg/mL (≈ 28.7 µM) and the 80% effect concentration (IC80) is 29.70 µg/mL (≈ 87.8 µM). In addition, the “ratio of glucose reduction” value in data set [2] (average after-meal glucose with vs without drug intake) is 13.6%. Further, in data set [2] (average of three patients, two hours after meal), the “Average blood glucose, drug intake, after meal” value is 11.4 mM/L. Moreover, the “effect on controlling postprandial blood glucose” value in data set [2] (high-blood-glucose patients, compared with soybean) was “significant effects”. For the same molecule, the “Blood glucose, drug intake, before meal” value in data set [2] (individual patient, oral dose before meal) was 7.9 mM/L and 8.6 mM/L and 8.5 mM/L. Besides, the “Blood glucose, drug intake, after meal” value in data set [2] (individual patient, two hours after 300 g boiled corn, oral dose before meal) is 10.6 mM/L and 12.0 mM/L and 11.6 mM/L. In addition, in the data set with Colon 38, the “synergistic effects in combination” value was “synergistic effects”. In the data set with MCF-7 cells, this molecule showed an IC50 of 9.1 µg/mL (≈ 26.9 µM) and a concentration for an effect of 80% (IC80) of 21.3 µg/mL (≈ 62.9 µM). Moreover, the “anti-tumor effect and side effects in the animal model” value in data set [1] (alone or in combination with 5-fluorouracil) is listed as “reduce the side effects brought by 5-fluorouracil dose”. In data set [1], the Death number is reported as 0, the “Average weight of tumor” value turned out to be 2.36 ± 0.13 g and the Tumor inhibiting rate is reported as 23%.
On to `O=c1[nH]cc(F)c(=O)[nH]1` [CK1(fu), 5-fluorouracil], for which, in data set [1], the Death number was 6, the “Average weight of tumor” value was 1.74 ± 0.11 g and the Tumor inhibiting rate turned out to be 43%.
As to `N.N.[Cl][Pt][Cl]` [Cis-platinum], the figures for the concentration for half-maximal inhibition (IC50) with Colon38 cells, with SGC-7901 cells and with MCF-7 cells were 3.92 µg/mL, 5.4 µg/mL and 3.92 µg/mL, respectively.
